# Test results published in patent US10149876B2, “Tripterygium wilfordii extracts to overcome chemotherapy resistance” (WESTERN UNIVERSITY OF HEALTH SCIENCES, priority 2012, dated 2018).
# Values joined by “and” are separate entries in the source; they are usually repeats but may differ in a detail not shown here. Equal entries are not always repeated. Where two headings read alike, the source gives them in different places.
# System: BT474-TxR cells
# Assay: SRB cell viability assay, Herceptin-resistant BT474-TxR cells
# Format: cell-based, human
# Settings: for IC50: lapatinib, BT474-TxR
smiles,measurement,setting,value
CS(=O)(=O)CCNCc1ccc(-c2ccc3ncnc(Nc4ccc(OCc5cccc(F)c5)c(Cl)c4)c3c2)o1 [lapatinib],viability at 0.067 µM,"Homo sapiens, Lapatinib 0.067 μM, 72 h, pre-treated with […] LGT-E",91.3%
same,viability at 0.2 µM,"Homo sapiens, Lapatinib 0.2 μM, 72 h, no LGT-E pre-treatment (control to Table 28)",84.7%
same,viability at 0.2 µM,"Homo sapiens, Lapatinib 0.2 μM, 72 h, no LGT-E pre-treatment (control to Table 30)",76.9%
same,viability at 0.2 µM,"Homo sapiens, Lapatinib 0.2 μM, 72 h, pre-treated with 25 μg/ml LGT-E",67.9%
same,viability at 0.2 µM,"Homo sapiens, Lapatinib 0.2 μM, 72 h, pre-treated with […] LGT-E",70.9%
same,viability at 0.67 µM,"Homo sapiens, Lapatinib 0.67 μM, 72 h, no LGT-E pre-treatment (control to Table 28)",68.7%
same,viability at 0.67 µM,"Homo sapiens, Lapatinib 0.67 μM, 72 h, no LGT-E pre-treatment (control to Table 30)",70.5%
same,viability at 0.67 µM,"Homo sapiens, Lapatinib 0.67 μM, 72 h, pre-treated with 25 μg/ml LGT-E",57.4%
same,viability at 0.67 µM,"Homo sapiens, Lapatinib 0.67 μM, 72 h, pre-treated with […] LGT-E",59.9%
same,viability at 2 µM,"Homo sapiens, Lapatinib 2 μM, 72 h, no LGT-E pre-treatment (control to Table 28)",65.2%
same,viability at 2 µM,"Homo sapiens, Lapatinib 2 μM, 72 h, no LGT-E pre-treatment (control to Table 30)",60.6%
same,viability at 2 µM,"Homo sapiens, Lapatinib 2 μM, 72 h, pre-treated with 25 μg/ml LGT-E",50.4%
same,viability at 2 µM,"Homo sapiens, Lapatinib 2 μM, 72 h, pre-treated with […] LGT-E",53.5%
same,viability at 6.7 µM,"Homo sapiens, Lapatinib 6.7 μM, 72 h, no LGT-E pre-treatment (control to Table 28)",59.4%
same,viability at 6.7 µM,"Homo sapiens, Lapatinib 6.7 μM, 72 h, no LGT-E pre-treatment (control to Table 30)",55.1%
same,viability at 6.7 µM,"Homo sapiens, Lapatinib 6.7 μM, 72 h, pre-treated with 25 μg/ml LGT-E",37.1%
same,viability at 6.7 µM,"Homo sapiens, Lapatinib 6.7 μM, 72 h, pre-treated with […] LGT-E",46.3%
same,viability at 20 µM,"Homo sapiens, Lapatinib 20 μM, 72 h, no LGT-E pre-treatment (control to Table 28)",52.3%
same,viability at 20 µM,"Homo sapiens, Lapatinib 20 μM, 72 h, no LGT-E pre-treatment (control to Table 30)",43.8%
same,viability at 20 µM,"Homo sapiens, Lapatinib 20 μM, 72 h, pre-treated with 25 μg/ml LGT-E",24.9%
same,viability at 20 µM,"Homo sapiens, Lapatinib 20 μM, 72 h, pre-treated with […] LGT-E",40.6%
same,IC50,"Homo sapiens, LGT-E 25 μg/ml pre-treatment, read-out: IC50 of drug when cells pre-treated with Chemosensitizing Agent before drug treatment",2 µM and 1.16 µg/mL
same,IC50,"Homo sapiens, line of LGT-E 25 μg/ml, read-out: IC50 of drug when cells treated with drug only",11 µM and 6.39 µg/mL
same,mean A at 565 nm,"Lapatinib 0.001 μM, 72 h, no LGT-E pre-treatment (control to Table 28), background = 0.045",1.135
same,mean A at 565 nm,"Lapatinib 0.001 μM, 72 h, no LGT-E pre-treatment (control to Table 30), background = 0.047",1.176
same,mean A at 565 nm,"Lapatinib 0.001 μM, 72 h, pre-treated with 25 μg/ml LGT-E, background = 0.047",0.957
same,mean A at 565 nm,"Lapatinib 0.001 μM, 72 h, pre-treated with […] LGT-E, background = 0.045",0.997
same,mean A at 565 nm,"Lapatinib 0.02 μM, 72 h, no LGT-E pre-treatment (control to Table 28), background = 0.045",1.104
same,mean A at 565 nm,"Lapatinib 0.02 μM, 72 h, no LGT-E pre-treatment (control to Table 30), background = 0.047",0.971
same,mean A at 565 nm,"Lapatinib 0.02 μM, 72 h, pre-treated with 25 μg/ml LGT-E, background = 0.047",0.821
same,mean A at 565 nm,"Lapatinib 0.02 μM, 72 h, pre-treated with […] LGT-E, background = 0.045",0.937
same,mean A at 565 nm,"Lapatinib 0.067 μM, 72 h, no LGT-E pre-treatment (control to Table 30), background = 0.047",1.079
same,mean A at 565 nm,"Lapatinib 0.067 μM, 72 h, pre-treated with 25 μg/ml LGT-E, background = 0.047",0.740
same,mean A at 565 nm,"Lapatinib 0.067 μM, 72 h, pre-treated with […] LGT-E, background = 0.045",0.911
same,mean A at 565 nm,"Lapatinib 0.2 μM, 72 h, no LGT-E pre-treatment (control to Table 28), background = 0.045",0.961
same,mean A at 565 nm,"Lapatinib 0.2 μM, 72 h, no LGT-E pre-treatment (control to Table 30), background = 0.047",0.905
same,mean A at 565 nm,"Lapatinib 0.2 μM, 72 h, pre-treated with 25 μg/ml LGT-E, background = 0.047",0.650
same,mean A at 565 nm,"Lapatinib 0.2 μM, 72 h, pre-treated with […] LGT-E, background = 0.045",0.707
same,mean A at 565 nm,"Lapatinib 0.67 μM, 72 h, no LGT-E pre-treatment (control to Table 28), background = 0.045",0.780
same,mean A at 565 nm,"Lapatinib 0.67 μM, 72 h, no LGT-E pre-treatment (control to Table 30), background = 0.047",0.829
same,mean A at 565 nm,"Lapatinib 0.67 μM, 72 h, pre-treated with 25 μg/ml LGT-E, background = 0.047",0.549
same,mean A at 565 nm,"Lapatinib 0.67 μM, 72 h, pre-treated with […] LGT-E, background = 0.045",0.598
same,mean A at 565 nm,"Lapatinib 2 μM, 72 h, no LGT-E pre-treatment (control to Table 28), background = 0.045",0.739
same,mean A at 565 nm,"Lapatinib 2 μM, 72 h, no LGT-E pre-treatment (control to Table 30), background = 0.047",0.712
same,mean A at 565 nm,"Lapatinib 2 μM, 72 h, pre-treated with 25 μg/ml LGT-E, background = 0.047",0.482
same,mean A at 565 nm,"Lapatinib 2 μM, 72 h, pre-treated with […] LGT-E, background = 0.045",0.533
same,mean A at 565 nm,"Lapatinib 6.7 μM, 72 h, no LGT-E pre-treatment (control to Table 28), background = 0.045",0.674
same,mean A at 565 nm,"Lapatinib 6.7 μM, 72 h, no LGT-E pre-treatment (control to Table 30), background = 0.047",0.648
same,mean A at 565 nm,"Lapatinib 6.7 μM, 72 h, pre-treated with 25 μg/ml LGT-E, background = 0.047",0.355
same,mean A at 565 nm,"Lapatinib 6.7 μM, 72 h, pre-treated with […] LGT-E, background = 0.045",0.461
same,mean A at 565 nm,"Lapatinib 20 μM, 72 h, no LGT-E pre-treatment (control to Table 28), background = 0.045",0.594
same,mean A at 565 nm,"Lapatinib 20 μM, 72 h, no LGT-E pre-treatment (control to Table 30), background = 0.047",0.515
same,mean A at 565 nm,"Lapatinib 20 μM, 72 h, pre-treated with 25 μg/ml LGT-E, background = 0.047",0.239
same,mean A at 565 nm,"Lapatinib 20 μM, 72 h, pre-treated with […] LGT-E, background = 0.045",0.405
